From ChEMBL document CHEMBL3272271, “Folate antagonists. 13. 2,4-Diamino-6-](alpha,alpha,alpha-trifluoro-m-tolyl)thio]quinazoline and related 2,4-diamino-6-[(phenyl- and naphthyl)thio]quinazolines, a unique class of antimetabolites with extraordinary antimalarial and antibacterial effects” (J Med Chem, 1978)
Values after ≈ are worked out from the molar mass of the structure shown. Active and inactive are the calls of the source. The calls are words filed in the database; no cut-off is given here.

Tests used:
Plasmodium berghei [1] = assay: Antimalarial activity against Plasmodium berghei infected in mouse assessed as increase in mean survival days of host at 40 mg/kg, sc administered 72 hrs after infection relative to control; type: functional; settings: route subcutaneous
Plasmodium berghei [2] = assay: Antimalarial activity against Plasmodium berghei infected in mouse assessed as increase in mean survival days of host at 20 mg/kg, sc administered 72 hrs after infection relative to control; type: functional; settings: route subcutaneous
Plasmodium berghei [3] = assay: Antimalarial activity against Plasmodium berghei infected in mouse assessed as disease cure from parasite infection at 640 mg/kg, sc administered 72 hrs after infection; type: functional, organism-based; set-up: dose 640 mg/kg
Plasmodium berghei [4] = assay: Antimalarial activity against Plasmodium berghei infected in mouse assessed as disease cure from parasite infection at 320 mg/kg, sc administered 72 hrs after infection; type: functional, organism-based; set-up: dose 320 mg/kg
Plasmodium berghei [5] = assay: Antimalarial activity against Plasmodium berghei infected in mouse assessed as increase in mean survival days of host at 160 mg/kg, sc administered 72 hrs after infection relative to control; type: functional; settings: route subcutaneous
Plasmodium berghei [6] = assay: Antimalarial activity against Plasmodium berghei infected in mouse assessed as increase in mean survival days of host at 10 mg/kg, sc administered 72 hrs after infection relative to control; type: functional; settings: route subcutaneous
Shigella sonnei = assay: Antibacterial activity against Shigella sonnei C-10 by gradient plate test; type: functional
Plasmodium berghei [7] = assay: Antimalarial activity against Plasmodium berghei infected in mouse assessed as increase in mean survival days of host at 320 mg/kg, sc administered 72 hrs after infection relative to control; type: functional; settings: route subcutaneous
Staphylococcus aureus [8] = assay: Antibacterial activity against drug-resistant Staphylococcus aureus S18713 by gradient plate test; type: functional
Plasmodium berghei [9] = assay: Antimalarial activity against Plasmodium berghei infected in mouse assessed as increase in mean survival days of host at 80 mg/kg, sc administered 72 hrs after infection relative to control; type: functional; settings: route subcutaneous
[10] = test system: Mycobacterium tuberculosis; assay: Antibacterial activity against Mycobacterium tuberculosis H37Ra by gradient plate test; type: functional
Escherichia coli = assay: Antibacterial activity against Escherichia coli Vogel by gradient plate test; type: functional
Staphylococcus aureus [11] = assay: Antibacterial activity against Staphylococcus aureus UC-96 by gradient plate test; type: functional
Pseudomonas aeruginosa = assay: Antibacterial activity against Pseudomonas aeruginosa 28 by gradient plate test; type: functional
Enterococcus faecalis = assay: Antibacterial activity against Streptococcus faecalis MGH-2 by gradient plate test; type: functional
Plasmodium gallinaceum [12] = assay: Antimalarial activity against trophozoite-induced Plasmodium gallinaceum infected in white leghorn chicken assessed as increase in mean survival days of host at 40 mg/kg, sc administered 72 hrs after infection relative to control; type: functional; settings: route subcutaneous
Plasmodium berghei [13] = assay: Ratio of quinine hydrochloride SD90 to compound SD90 for trophozoite-induced Plasmodium berghei infected in mouse assessed as daily dose required to suppression of 90% parasite infection administered with diet for 6 days; type: functional
Plasmodium gallinaceum [14] = assay: Antimalarial activity against sporozoite-induced Plasmodium gallinaceum infected in white leghorn chicken assessed as disease cure from parasite infection at 60 mg/kg, sc administered 72 hrs after infection; type: functional, organism-based; set-up: dose 60 mg/kg
Plasmodium berghei [15] = assay: Antimalarial activity against Plasmodium berghei infected in mouse assessed as disease cure from parasite infection at 80 mg/kg, sc administered 72 hrs after infection; type: functional, organism-based; set-up: dose 80 mg/kg
Plasmodium gallinaceum [16] = assay: Antimalarial activity against sporozoite-induced Plasmodium gallinaceum infected in white leghorn chicken assessed as disease cure from parasite infection at 480 mg/kg, sc administered 72 hrs after infection; type: functional, organism-based; set-up: dose 480 mg/kg
Plasmodium gallinaceum [17] = assay: Antimalarial activity against trophozoite-induced Plasmodium gallinaceum infected in white leghorn chicken assessed as increase in mean survival days of host at 160 mg/kg, sc administered 72 hrs after infection relative to control; type: functional; settings: route subcutaneous
Plasmodium gallinaceum [18] = assay: Antimalarial activity against sporozoite-induced Plasmodium gallinaceum infected in white leghorn chicken assessed as disease cure from parasite infection at 240 mg/kg, sc administered 72 hrs after infection; type: functional, organism-based; set-up: dose 240 mg/kg
Plasmodium gallinaceum [19] = assay: Antimalarial activity against trophozoite-induced Plasmodium gallinaceum infected in white leghorn chicken assessed as increase in mean survival days of host at 20 mg/kg, sc administered 72 hrs after infection relative to control; type: functional; settings: route subcutaneous
Plasmodium berghei [20] = assay: Antimalarial activity against trophozoite-induced Plasmodium berghei infected in mouse assessed as daily dose required to suppression of 90% parasite infection administered with diet for 6 days; type: functional
Gallus gallus = assay: Toxicity in sporozoite-induced Plasmodium gallinaceum infected white leghorn chicken assessed as mortality at 480 mg/kg, sc administered 72 hrs after infection measured up to 6 days; type: organism-based; set-up: dose 480 mg/kg, route subcutaneous; settings: in vivo
Plasmodium gallinaceum [21] = assay: Antimalarial activity against trophozoite-induced Plasmodium gallinaceum infected in white leghorn chicken assessed as increase in mean survival days of host at 10 mg/kg, sc administered 72 hrs after infection relative to control; type: functional; settings: route subcutaneous
Plasmodium gallinaceum [22] = assay: Antimalarial activity against trophozoite-induced Plasmodium gallinaceum infected in white leghorn chicken assessed as disease cure from parasite infection at 320 mg/kg, sc administered 72 hrs after infection; type: functional, organism-based; set-up: dose 320 mg/kg
Plasmodium berghei [23] = assay: Antimalarial activity against Plasmodium berghei infected in mouse assessed as disease cure from parasite infection at 160 mg/kg, sc administered 72 hrs after infection; type: functional, organism-based; set-up: dose 160 mg/kg
Plasmodium gallinaceum [24] = assay: Antimalarial activity against sporozoite-induced Plasmodium gallinaceum infected in white leghorn chicken assessed as disease cure from parasite infection at 120 mg/kg, sc administered 72 hrs after infection; type: functional, organism-based; set-up: dose 120 mg/kg
Plasmodium gallinaceum [25] = assay: Antimalarial activity against trophozoite-induced Plasmodium gallinaceum infected in white leghorn chicken assessed as increase in mean survival days of host at 320 mg/kg, sc administered 72 hrs after infection relative to control; type: functional; settings: route subcutaneous
Plasmodium gallinaceum [26] = assay: Antimalarial activity against trophozoite-induced Plasmodium gallinaceum infected in white leghorn chicken assessed as increase in mean survival days of host at 80 mg/kg, sc administered 72 hrs after infection relative to control; type: functional; settings: route subcutaneous
Plasmodium gallinaceum [27] = assay: Antimalarial activity against sporozoite-induced Plasmodium gallinaceum infected in white leghorn chicken assessed as disease cure from parasite infection at 15 mg/kg, sc administered 72 hrs after infection; type: functional, organism-based; set-up: dose 15 mg/kg
Plasmodium gallinaceum [28] = assay: Antimalarial activity against sporozoite-induced Plasmodium gallinaceum infected in white leghorn chicken assessed as disease cure from parasite infection at 30 mg/kg, sc administered 72 hrs after infection; type: functional, organism-based; set-up: dose 30 mg/kg
Plasmodium gallinaceum [29] = assay: Antimalarial activity against sporozoite-induced Plasmodium gallinaceum infected in white leghorn chicken assessed as increase in mean survival days of host at 15 mg/kg, sc administered 72 hrs after infection relative to control; type: functional; settings: route subcutaneous

Structure (SMILES)	MST (Plasmodium berghei [1]) [days]	MST (Plasmodium berghei [2]) [days]	Activity (Plasmodium berghei [3])	Activity (Plasmodium berghei [4])	MST (Plasmodium berghei [5]) [days]	MST (Plasmodium berghei [6]) [days]	MIC (Shigella sonnei) [µg/mL]	MST (Plasmodium berghei [7]) [days]	MIC (Staphylococcus aureus [8]) [µg/mL]	MST (Plasmodium berghei [9]) [days]	MIC [10] [µg/mL]	MIC (Escherichia coli) [µg/mL]	MIC (Staphylococcus aureus [11]) [µg/mL]	MIC (Pseudomonas aeruginosa) [µg/mL]	MIC (Enterococcus faecalis) [µg/mL]	Ratio (Plasmodium berghei [13])	Activity (Plasmodium gallinaceum [14])	Activity (Plasmodium berghei [15])	Activity (Plasmodium gallinaceum [16])	Activity (Plasmodium gallinaceum [18])	further results
Nc1nc(N)c2cc(Sc3cccc(Cl)c3)ccc2n1	3.5	0.5	Active	Active	4.9	0.5	20 (≈ 66.1 µM)	20.9	5 (≈ 16.5 µM)	4.3	> 25	10 (≈ 33 µM)	2.5 (≈ 8.26 µM)	> 25	10 (≈ 33 µM)						
Cc1ccc(Sc2ccc3nc(N)nc(N)c3c2)cc1	7.1	3.9	Active	Active		2.5	0.5 (≈ 1.77 µM)		< 0.25	9.7		< 0.25	< 0.25	> 25	< 0.25	10	Active	Active	Active	Active	MST (Plasmodium gallinaceum [12]): 10.4 days; MST (Plasmodium gallinaceum [17]): 22.2 days; MST (Plasmodium gallinaceum [19]): 7.6 days; SD90 (Plasmodium berghei [20]): 7.2 mg/kg/day; Activity (Gallus gallus): Toxic; MST (Plasmodium gallinaceum [21]): 4.6 days; Activity (Plasmodium gallinaceum [22]): Active; Activity (Plasmodium berghei [23]): Active; Activity (Plasmodium gallinaceum [24]): Active; MST (Plasmodium gallinaceum [25]): 20 days; MST (Plasmodium gallinaceum [26]): 15.2 days
COc1cccc(Sc2ccc3nc(N)nc(N)c3c2)c1	5.7	1.5	Active	Active	11.7	0.3	1 (≈ 3.35 µM)	12.2	< 0.25	8.3		< 0.25	< 0.25	> 25	< 0.25						
CC(C)(C)c1ccc(Sc2ccc3nc(N)nc(N)c3c2)cc1	2.6	1	Active	Active	7.8	1.1	15 (≈ 46.2 µM)	17.9	< 0.25	6		10 (≈ 30.8 µM)	< 0.25	> 25	< 0.25	4.1					SD90 (Plasmodium berghei [20]): 18 mg/kg/day
Nc1nc(N)c2cc(Sc3ccc(O)cc3)ccc2n1	11.9	6.3	Active	Active	13.6	2.9	15 (≈ 52.8 µM)		< 0.25	10.9	> 25	2.5 (≈ 8.79 µM)	< 0.25	20 (≈ 70.3 µM)	< 0.25		Active	Active	Active	Active	Activity (Plasmodium gallinaceum [27]): Active; Activity (Plasmodium gallinaceum [28]): Active; Activity (Plasmodium berghei [23]): Active; Activity (Plasmodium gallinaceum [24]): Active; MST (Plasmodium gallinaceum [29]): 4.7 days
